The source of these data is patent US20160002247A1, “8-SUBSTITUTED IMIDAZOPYRIMIDINONE DERIVATIVE HAVING AUTOTAXIN INHIBITORY ACTIVITY” (THE UNIVERSITY OF TOKYO, priority 2013, published 2016).

A value given as a limit tells only on which side of the number the result lay.

The target of one test is T1, Human autotaxin enzyme (Homo sapiens, UniProt Q13822).
T1 construct: purchased R&D System
In words: Evaluation of autotaxin inhibitor, Method C (Test Example 3): 18:0 Lyso PC, choline assay, Resorufin fluorescence. In kind it is biochemical. The conditions noted are these: Assay Method C (Test Example 3), human autotaxin, 18:0 Lyso PC substrate; read-out: Inhibitory Activity (autotaxin enzyme inhibitory activity, IC50 class). As for the experimental part:
(Method C) Evaluation of Autotaxin Inhibitor
Solution B containing 100 mM Tris-HCl buffer (pH7.5), 150 mM NaCl, 5 mM MgCl2 and 0.05% Triton X-100 was prepared. Human autotaxin enzyme (purchased from R&D System) was diluted with Solution B, and 2.5 μL of which was added to a solution of test compound in DMSO. Furthermore, 2.5 μl of 200 μM 18:0 Lyso PC (purchased from Avanti Polar Lipids) in Solution B was added and allowed to react at room temperature for 2 hours. After completion of the reaction, 15 μL of the coline assay reagent (100 mM Tris-HCl buffer (pH7.5), 5 mM MgCl2, 77 μg/mL choline oxidase, 10 μg/mL peroxidase, 25 μM 10-acetyl-3,7-dihydroxyphenoxazine and excess autotaxin inhibitor) was added and allowed to react at room temperature for 20 minutes. The fluorescent dye Resorufin, which was produced by the reaction, was detected. The fluorescence was detected using ViewLux (PerkinElmer, Inc.) with an excitation wavelength of 531 nm and a fluorescence wavelength of 598 nm.
The percent inhibition of the test compound was calculated by assuming the sample with no test compound as 0% inhibition and the sample with no enzyme as 100% inhibition, and the percent inhibitions at different concentrations of the test compound were plotted to obtain a concentration-dependent curve.
Turning to `Cc1cc(=O)n2cc(-c3ccc(Cl)cc3)nc2n1CCCCCC#N` [Compound 98], the IC50 fell in the range of 10 to 100 nM.

For `Cc1cc(=O)n2cc(-c3ccc(Cl)cc3)nc2n1Cc1c(F)cccc1F` [Compound 119], the IC50 was in the range of 100 to 1000 nM.

Turning to `O=c1cc(Cl)[nH]c2nc([C@H]3CC[C@H](C(F)(F)F)CC3)cn12` [Compound 135, 7-chloro-2-((1r,4r)-4-(trifluoromethyl)cyclohexyl)imidazo[1,2-a]pyrimidin-5(8H)-one], the IC50 is more than 1000 nM.

Take `NC(=O)c1ccc(-c2cc(=O)n3cc([C@H]4CC[C@H](C(F)(F)F)CC4)nc3n2CCCC(F)(F)F)cc1` [Compound 136, 4-(5-oxo-8-(4,4,4-trifluorobutyl)-2-((1r,4r)-4-(trifluoromethyl)cyclohexyl)-5,8-dihydroimidazo[1,2-a]pyrimidine-7-yl)benzamide]: the IC50 was 100 to 1000 nM.

Take `CCCCCn1c(C)cc(=O)n2cc(C3CCC(C(F)(F)F)CC3)nc12` (stereo not shown) [Compound 137]: the IC50 was in the range of 100 to 1000 nM.

For the compound `O=C(O)c1ccc(-c2cc(=O)n3cc([C@H]4CC[C@H](C(F)(F)F)CC4)nc3n2CCCC(F)(F)F)cc1` [Compound 164], the IC50 lay within 10 to 100 nM.

For `O=C(NCCN1CC2(COC2)C1)c1ccc(-c2cc(=O)n3cc([C@H]4CC[C@H](C(F)(F)F)CC4)nc3n2CCCC(F)(F)F)cc1` [Compound 165], the IC50 is 10 to 100 nM.

As for `CCCCCn1c(C)cc(=O)n2cc(-c3ccc(C(=O)O)cc3)nc12` [Compound 166], the IC50 was more than 1000 nM.

In the case of `CCCCCn1c(N2CCN(CCC(=O)c3ccc4[nH]c(=O)oc4c3)CC2)cc(=O)n2cc(-c3ccc(Cl)cc3)nc12` [Compound 190], the IC50 was in the range of 10 to 100 nM.

For the compound `CCCCCn1c(NCc2ccc(C(=O)O)cc2)cc(=O)n2cc(-c3ccc(Cl)cc3)nc12` [Compound 192], the IC50 was in the range of 10 to 100 nM.

For the compound `CCCCCn1c(OCc2ccc(C(=O)O)cc2)cc(=O)n2cc(-c3ccc(Cl)cc3)nc12` [Compound 194], the IC50 fell in the range of 10 to 100 nM.

For `CCCCCn1c(N(C)Cc2ccc(C(=O)O)cc2)cc(=O)n2cc(-c3ccc(Cl)cc3)nc12` [Compound 197], the IC50 is 10 to 100 nM.

In the case of `N#CCCCCn1c(NCc2ccc(C(=O)O)cc2)cc(=O)n2cc(-c3ccc(C(F)(F)F)cc3)nc12` [Compound 198], the IC50 was 10 to 100 nM.

Consider `CCCCCn1c(C)c(CC(=O)OCC)c(=O)n2cc(-c3ccc(Cl)cc3)nc12` [Compound 202], for which the IC50 is 10 to 100 nM.

As to `CCCCCn1c(C)c(CCO)c(=O)n2cc(-c3ccc(Cl)cc3)nc12` [Compound 207], the IC50 was 10 to 100 nM.

Take `CCCCCn1c(N(C)Cc2ccccc2)cc(=O)n2cc(-c3ccc(Cl)cc3)nc12` [Compound 219]: the IC50 lay within 10 to 100 nM.

Regarding `CCCCCn1c(N2CCN(C(C)=O)CC2)cc(=O)n2cc(-c3ccc(Cl)cc3)nc12` [Compound 242], the IC50 was in the range of 10 to 100 nM.

As to `N#CCCCCn1c(N2CCC(C(=O)O)CC2)cc(=O)n2cc(-c3ccc(Cl)cc3)nc12` [Compound 282], the IC50 is 10 to 100 nM.

For `N#CCCCCn1c(N2CCC(C(=O)O)CC2)cc(=O)n2cc(-c3ccc(C#N)cc3)nc12` [Compound 284], the IC50 was in the range of 10 to 100 nM.

In the case of `N#CCCCCn1c(NCc2ccc(C(=O)O)cc2)cc(=O)n2cc(-c3ccc(C#N)cc3)nc12` [Compound 288], the IC50 lay within 10 to 100 nM.

For the compound `CCCCCn1c(N2CCN(C(=O)N3CCCCC3)CC2)cc(=O)n2cc(-c3ccc(Cl)cc3)nc12` [Compound 291], the IC50 was 100 to 1000 nM.

Consider `CCCCCn1c(N2CCN(C(=O)c3ccc([N+](=O)[O-])cc3)CC2)cc(=O)n2cc(-c3ccc(Cl)cc3)nc12` [Compound 292], for which the IC50 was 100 to 1000 nM.

As for `CCCCCn1c(N2CCNC(=O)C2)cc(=O)n2cc(-c3ccc(Cl)cc3)nc12` [Compound 293], the IC50 was 100 to 1000 nM.

As for `CCCCCn1c(N2CCC(NC(C)=O)CC2)cc(=O)n2cc(-c3ccc(Cl)cc3)nc12` [Compound 294], the IC50 lay within 100 to 1000 nM.

Consider `CCCCCn1c(N2CCC(C(=O)NC)CC2)cc(=O)n2cc(-c3ccc(Cl)cc3)nc12` [Compound 295], for which the IC50 was 100 to 1000 nM.

Regarding `CCCCCn1c(N2CCN(S(=O)(=O)N3CCOCC3)CC2)cc(=O)n2cc(-c3ccc(Cl)cc3)nc12` [Compound 296], the IC50 fell in the range of 100 to 1000 nM.

Regarding `CCCCCn1c(N2CCN(S(=O)(=O)N(C)C)CC2)cc(=O)n2cc(-c3ccc(Cl)cc3)nc12` [Compound 297], the IC50 lay within 100 to 1000 nM.

Turning to `CCCCCn1c(N2CCC(NS(C)(=O)=O)CC2)cc(=O)n2cc(-c3ccc(Cl)cc3)nc12` [Compound 298], the IC50 lay in the range of 100 to 1000 nM.

`CCCCCn1c(N2CCC(C(=O)N3CCCC3=O)CC2)cc(=O)n2cc(-c3ccc(Cl)cc3)nc12` [Compound 299]: the IC50 is 10 to 100 nM.

Take `CCCCCn1c(N2CCCC(C)C2)cc(=O)n2cc(-c3ccc(Cl)cc3)nc12` (stereo not shown) [Compound 300]: the IC50 was in the range of 100 to 1000 nM.

Take `CCCCCn1c(N2CCCC(CO)C2)cc(=O)n2cc(-c3ccc(Cl)cc3)nc12` (stereo not shown) [Compound 301]: the IC50 was 100 to 1000 nM.

For `CCCCCn1c(N2CCCCC2CCO)cc(=O)n2cc(-c3ccc(Cl)cc3)nc12` (stereo not shown) [Compound 302], the IC50 lay within 10 to 100 nM.

On to `CCCCCn1c(N2CC(C)CC(C)C2)cc(=O)n2cc(-c3ccc(Cl)cc3)nc12` (stereo not shown) [Compound 303], for which the concentration for half-maximal inhibition (IC50) is more than 1000 nM.

In the case of `CCCCCn1c(N2CCC[C@H]2CO)cc(=O)n2cc(-c3ccc(Cl)cc3)nc12` [Compound 304], the IC50 was 100 to 1000 nM.

Consider `CCCCCn1c(N2CCCC(c3ccccc3)C2)cc(=O)n2cc(-c3ccc(Cl)cc3)nc12` (stereo not shown) [Compound 305], for which the IC50 was more than 1000 nM.

Take `CCCCCn1c(N2CCCC2c2ccccc2)cc(=O)n2cc(-c3ccc(Cl)cc3)nc12` (stereo not shown) [Compound 306]: the IC50 lay in the range of 10 to 100 nM.

As to `CCCCCn1c(N2CCCC(C3CCCCC3)C2)cc(=O)n2cc(-c3ccc(Cl)cc3)nc12` (stereo not shown) [Compound 307], the IC50 was more than 1000 nM.

As for `CCCCCn1c(N2CCCC2CC(C)C)cc(=O)n2cc(-c3ccc(Cl)cc3)nc12` (stereo not shown) [Compound 308], the IC50 was in the range of 10 to 100 nM.

Take `CCCCCn1c(N2CC=CC2)cc(=O)n2cc(-c3ccc(Cl)cc3)nc12` [Compound 309]: the IC50 fell in the range of 10 to 100 nM.

For `CCCCCn1c(N2CCC(F)(F)CC2)cc(=O)n2cc(-c3ccc(Cl)cc3)nc12` [Compound 310], the IC50 lay in the range of 100 to 1000 nM.

For the compound `CCCCCn1c(N2CCCC(CNC(=O)OC(C)(C)C)C2)cc(=O)n2cc(-c3ccc(Cl)cc3)nc12` (stereo not shown) [Compound 311], the IC50 is 100 to 1000 nM.

For `CCCCCn1c(N2CCC3CN(C(=O)OC(C)(C)C)CC32)cc(=O)n2cc(-c3ccc(Cl)cc3)nc12` (stereo not shown) [Compound 312], the IC50 was 10 to 100 nM.

`CCCCCn1c(N2CCC3(CN(C(=O)OC(C)(C)C)C3)C2)cc(=O)n2cc(-c3ccc(Cl)cc3)nc12` [Compound 313]: the IC50 was 100 to 1000 nM.

With `CCCCCn1c(N2CC3CN(C(=O)OC(C)(C)C)CC3C2)cc(=O)n2cc(-c3ccc(Cl)cc3)nc12` (stereo not shown) [Compound 314], the half-maximal inhibitory concentration (IC50) was more than 1000 nM.

For the compound `CCCCCn1c(N2CCCC(CC(=O)OCC)C2)cc(=O)n2cc(-c3ccc(Cl)cc3)nc12` (stereo not shown) [Compound 315], the IC50 is 100 to 1000 nM.

Take `CCCCCn1c(N2CCCC(O)(c3ccc(F)cc3)C2)cc(=O)n2cc(-c3ccc(Cl)cc3)nc12` (stereo not shown) [Compound 317]: the IC50 was more than 1000 nM.

`CCCCCn1c(N2CCC[C@H]2C(=O)Nc2ccccc2)cc(=O)n2cc(-c3ccc(Cl)cc3)nc12` [Compound 318]: the IC50 lay within 100 to 1000 nM.

Take `CCCCCn1c(N2CCCC(CC(=O)O)C2)cc(=O)n2cc(-c3ccc(Cl)cc3)nc12` (stereo not shown) [Compound 319]: the IC50 lay within 10 to 100 nM.

With `CCCCCn1c(N2CCCC2Cc2ccccc2)cc(=O)n2cc(-c3ccc(Cl)cc3)nc12` (stereo not shown) [Compound 320], the IC50 lay within 100 to 1000 nM.

Take `CCCCCn1c(N2CCCC(F)(F)C2)cc(=O)n2cc(-c3ccc(Cl)cc3)nc12` [Compound 321]: the IC50 lay within 100 to 1000 nM.

As for `CCCCCn1c(N2CCC(CCc3ccccc3)C2)cc(=O)n2cc(-c3ccc(Cl)cc3)nc12` (stereo not shown) [Compound 322], the IC50 was more than 1000 nM.

`CCCCCn1c(N2CCC(C(F)(F)F)C2)cc(=O)n2cc(-c3ccc(Cl)cc3)nc12` (stereo not shown) [Compound 323]: the IC50 is 100 to 1000 nM.

In the case of `CCCCCn1c(N2CCC(N3CC(C(=O)OC(C)(C)C)C3)C2)cc(=O)n2cc(-c3ccc(Cl)cc3)nc12` (stereo not shown) [Compound 324], the IC50 lay in the range of 100 to 1000 nM.

With `CCCCCn1c(N2CCC(Cc3ccccc3)C2)cc(=O)n2cc(-c3ccc(Cl)cc3)nc12` (stereo not shown) [Compound 325], the IC50 lay within 100 to 1000 nM.

On to `CCCCCn1c(N2CCC[C@H]2C(=O)NCCC(=O)O)cc(=O)n2cc(-c3ccc(Cl)cc3)nc12` [Compound 326], for which the IC50 is less than 10 nM.

The test is the same for the next values; noted with them: Assay Method: Method C (Test Example 3); read-out: Inhibitory Activity (Enzyme Inhibitory Activity, IC50).
Consider `CCCC(=O)Cn1c(C)cc(=O)n2cc(-c3ccc(Cl)cc3)nc12` [Compound 41], for which the IC50 was 100 to 1000 nM.

Turning to `Cc1cc(=O)n2cc(-c3ccc(Cl)cc3)nc2n1CCCC(C)O` (stereo not shown) [Compound 46], the IC50 is more than 1000 nM.

With `CCC(O)CCn1c(C)cc(=O)n2cc(-c3ccc(Cl)cc3)nc12` (stereo not shown) [Compound 47], the IC50 is more than 1000 nM.

On to `CCC(=O)CCn1c(C)cc(=O)n2cc(-c3ccc(Cl)cc3)nc12` [Compound 48], for which the IC50 is more than 1000 nM.

On to `Cc1cc(=O)n2cc(-c3ccc(Cl)cc3)nc2n1CCCC(C)F` (stereo not shown) [Compound 49], for which the IC50 was 100 to 1000 nM.

`Cc1cc(=O)n2cc(-c3ccc(Cl)cc3)nc2n1CCCCC#N` [Compound 63]: the IC50 lay in the range of 100 to 1000 nM.
